Starred links: 1 amine or outer side, 2 acyl side, 3 side chain; linkers in the order of their positions; H or OH if unused. Non-standard residues stand in square brackets, D forms with d. Residues, ends and D or L forms follow the SMILES beside them. Groups on a side chain read outwards from the residue. *: point of attachment. C18 diacid = O=C(O)CCCCCCCCCCCCCCCCC(=O)*; γGlu = O=C(O)[C@H](CCC(=O)[*:2])N[*:1]; Stearoyl = CCCCCCCCCCCCCCCCCC(=O)*; Palmitoyl = CCCCCCCCCCCCCCCC(=O)*; αMeF = C[C@](N)(Cc1ccccc1)C(=O)O; PEG2 = NCCOCCOCCC(=O)O; AEEA = NCCOCCOCC(=O)O; Aib = CC(C)(N)C(=O)O
Experiments:
[1] = target: human glucagon receptor (hGCGR) (Homo sapiens, UniProt P47871); experiment: cAMP production (HTRF) in CHO cells expressing hGCGR; assay type: cell-based; design: expressed in transfected cells; details: Table 6, peptides modified at position 17; cAMP in CHO hGCGR cells; geometric mean; read-out: hGluc-R EC50
human glucagon receptor (hGCGR), sequence (P47871 26-477): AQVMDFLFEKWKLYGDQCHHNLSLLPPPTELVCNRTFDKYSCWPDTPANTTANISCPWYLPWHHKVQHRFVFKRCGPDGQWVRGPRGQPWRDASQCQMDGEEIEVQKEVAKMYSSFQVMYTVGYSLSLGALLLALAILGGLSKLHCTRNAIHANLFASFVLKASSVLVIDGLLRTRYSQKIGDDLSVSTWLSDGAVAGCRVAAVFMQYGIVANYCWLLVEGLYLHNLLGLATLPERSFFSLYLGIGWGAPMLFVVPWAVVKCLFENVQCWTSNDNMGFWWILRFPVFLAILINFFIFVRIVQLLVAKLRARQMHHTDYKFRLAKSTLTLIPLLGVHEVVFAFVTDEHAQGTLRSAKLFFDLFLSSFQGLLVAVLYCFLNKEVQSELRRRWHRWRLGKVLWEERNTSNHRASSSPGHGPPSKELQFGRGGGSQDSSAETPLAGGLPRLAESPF
Summary of the method: (§1)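 Read-out: HTRF cAMP (anti-cAMP cryptate donor, cAMP-d2 acceptor in conjugate/lysis buffer), converted to % Delta F and fitted by 4-parameter logistic for EC50. Cell densities were 1×10^5 cells/mL (hGLP-1R) or 2×10^5 cells/mL (hGCGR). Stimulation lasted 30 min at room temperature.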

[2] = target: human GLP-1 receptor (hGLP-1R) (Homo sapiens, UniProt P43220); experiment: cAMP production (HTRF) in CHO cells expressing hGLP-1R; assay type: cell-based; design: expressed in transfected cells; details: for EC50: Table 6, peptides modified at position 17, cAMP in CHO hGLP-1R cells, geometric mean, read-out: hGLP-1R EC50; for % Relative Potency Ratio: Table 6, % GLP-1R activity relative to GLP-1 / % GlucR activity relative to glucagon
human GLP-1 receptor (hGLP-1R), sequence (P43220 24-463): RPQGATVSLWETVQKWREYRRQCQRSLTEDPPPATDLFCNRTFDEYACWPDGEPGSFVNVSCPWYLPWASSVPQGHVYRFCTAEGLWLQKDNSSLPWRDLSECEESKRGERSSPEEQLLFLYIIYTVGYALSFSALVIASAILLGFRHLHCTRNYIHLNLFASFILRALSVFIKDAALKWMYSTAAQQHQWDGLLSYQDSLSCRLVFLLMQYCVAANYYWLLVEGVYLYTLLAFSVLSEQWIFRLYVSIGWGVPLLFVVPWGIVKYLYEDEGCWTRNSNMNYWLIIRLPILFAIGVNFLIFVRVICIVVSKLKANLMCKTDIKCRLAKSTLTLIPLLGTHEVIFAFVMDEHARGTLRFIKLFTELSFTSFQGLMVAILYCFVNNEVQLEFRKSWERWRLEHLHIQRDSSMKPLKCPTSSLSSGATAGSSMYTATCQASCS
Summary of the method: as §1

SMILES	EC50 [1] [pM]	EC50 [2] [pM]	% Relative Potency Ratio [2]
CC[C@H](C)[C@H](NC(=O)C(C)(C)NC(=O)[C@H](CCC(N)=O)NC(=O)[C@@H](NC(=O)[C@](C)(Cc1ccccc1)NC(=O)[C@H](CC(=O)O)NC(=O)[C@H](CCC(N)=O)NC(=O)[C@H](C)NC(=O)[C@H](C)NC(=O)[C@H](CCCCNC(=O)COCCOCCNC(=O)COCCOCCNC(=O)CC[C@H](NC(=O)CCCCCCCCCCCCCCCCC(=O)O)C(=O)O)NC(=O)[C@H](CO)NC(=O)[C@H](CC(=O)O)NC(=O)[C@H](CC(C)C)NC(=O)C(C)(C)NC(=O)[C@H](CCCCN)NC(=O)[C@H](CO)NC(=O)[C@@H](NC(=O)[C@H](CC(=O)O)NC(=O)[C@H](CO)NC(=O)[C@@H](NC(=O)[C@](C)(Cc1ccccc1)NC(=O)[C@H](CO)NC(=O)CNC(=O)[C@H](CCC(N)=O)NC(=O)[C@H](CO)NC(=O)[C@@H](N)Cc1c[nH]cn1)[C@@H](C)O)C(C)C)C(C)C)C(=O)N[C@@H](C)C(=O)N[C@@H](CC(N)=O)C(N)=O [Peptide 108] (H-HSQGS[αMeF]TSDVSK[Aib]LDSK([AEEA-AEEA-γGlu-C18 diacid])AAQD[αMeF]VQ[Aib]IAN-NH2; N-terminus assumed)	> 27100	3200	
CC[C@H](C)[C@H](NC(=O)C(C)(C)NC(=O)[C@H](CCC(N)=O)NC(=O)[C@@H](NC(=O)[C@](C)(Cc1ccccc1)NC(=O)[C@H](CC(=O)O)NC(=O)[C@H](CCC(N)=O)NC(=O)[C@H](C)NC(=O)[C@H](C)NC(=O)[C@H](CCCCNC(=O)COCCOCCNC(=O)COCCOCCNC(=O)CC[C@H](NC(=O)CCCCCCCCCCCCCCCCC(=O)O)C(=O)O)NC(=O)[C@H](CO)NC(=O)[C@H](CC(=O)O)NC(=O)[C@H](CC(C)C)NC(=O)C(C)(C)NC(=O)[C@H](CCCCNC(C)=O)NC(=O)[C@H](CO)NC(=O)[C@@H](NC(=O)[C@H](CC(=O)O)NC(=O)[C@H](CO)NC(=O)[C@@H](NC(=O)[C@](C)(Cc1ccccc1)NC(=O)[C@H](CO)NC(=O)CNC(=O)[C@H](CCC(N)=O)NC(=O)[C@H](CO)NC(=O)[C@@H](N)Cc1c[nH]cn1)[C@@H](C)O)C(C)C)C(C)C)C(=O)N[C@@H](C)C(=O)N[C@@H](CC(N)=O)C(N)=O [Peptide 109] (H-HSQGS[αMeF]TSDVSK(Ac)[Aib]LDSK([AEEA-AEEA-γGlu-C18 diacid])AAQD[αMeF]VQ[Aib]IAN-NH2; N-terminus assumed)	> 26800	698	
CCCCCCCCCCCCCCCCCC(=O)N[C@@H](CCC(=O)N[C@@H](CCC(=O)NCCOCCOCCC(=O)NCCOCCOCCC(=O)NCCCC[C@H](NC(=O)[C@H](CO)NC(=O)[C@H](CC(=O)O)NC(=O)[C@H](CC(C)C)NC(=O)C(C)(C)NC(=O)[C@H](CCCCNC(C)=O)NC(=O)[C@H](CO)NC(=O)[C@@H](NC(=O)[C@H](CC(=O)O)NC(=O)[C@H](CO)NC(=O)[C@@H](NC(=O)[C@](C)(Cc1ccccc1)NC(=O)[C@H](CO)NC(=O)CNC(=O)[C@H](CCC(N)=O)NC(=O)[C@H](CO)NC(=O)[C@@H](N)Cc1c[nH]cn1)[C@@H](C)O)C(C)C)C(=O)N[C@@H](C)C(=O)N[C@@H](C)C(=O)N[C@@H](CCC(N)=O)C(=O)N[C@@H](CC(=O)O)C(=O)N[C@@](C)(Cc1ccccc1)C(=O)N[C@H](C(=O)N[C@@H](CCC(N)=O)C(=O)NC(C)(C)C(=O)N[C@H](C(=O)N[C@@H](C)C(=O)N[C@@H](CC(N)=O)C(N)=O)[C@@H](C)CC)C(C)C)C(=O)O)C(=O)O [Peptide 110] (H-HSQGS[αMeF]TSDVSK(Ac)[Aib]LDSK([PEG2-PEG2-γGlu-γGlu-Stearoyl])AAQD[αMeF]VQ[Aib]IAN-NH2; N-terminus assumed)	48.5		152.9
CCCCCCCCCCCCCCCC(=O)N[C@@H](CCC(=O)N[C@@H](CCC(=O)NCCOCCOCCC(=O)NCCOCCOCCC(=O)NCCCC[C@H](NC(=O)[C@H](CO)NC(=O)[C@H](CC(=O)O)NC(=O)[C@H](CC(C)C)NC(=O)[C@@H](NC(=O)[C@H](CCCCN)NC(=O)[C@H](CO)NC(=O)[C@@H](NC(=O)[C@H](CC(=O)O)NC(=O)[C@H](CO)NC(=O)[C@@H](NC(=O)[C@](C)(Cc1ccccc1)NC(=O)[C@H](CO)NC(=O)CNC(=O)[C@H](CCC(N)=O)NC(=O)[C@H](CO)NC(=O)[C@@H](N)Cc1c[nH]cn1)[C@@H](C)O)C(C)C)[C@@H](C)CC)C(=O)N[C@@H](C)C(=O)N[C@@H](C)C(=O)N[C@@H](CCC(N)=O)C(=O)N[C@@H](CC(=O)O)C(=O)N[C@@](C)(Cc1ccccc1)C(=O)N[C@H](C(=O)N[C@@H](CCC(N)=O)C(=O)NC(C)(C)C(=O)N[C@H](C(=O)N[C@@H](C)C(=O)N[C@@H](CC(N)=O)C(N)=O)[C@@H](C)CC)C(C)C)C(=O)O)C(=O)O [Peptide 111] (H-HSQGS[αMeF]TSDVSKILDSK([PEG2-PEG2-γGlu-γGlu-Palmitoyl])AAQD[αMeF]VQ[Aib]IAN-NH2)	2.09	1.92	2.2
CCCCCCCCCCCCCCCC(=O)N[C@@H](CCC(=O)N[C@@H](CCC(=O)NCCOCCOCCC(=O)NCCOCCOCCC(=O)NCCCC[C@H](NC(=O)[C@H](CO)NC(=O)[C@H](CC(=O)O)NC(=O)[C@H](CC(C)C)NC(=O)[C@@H](NC(=O)[C@H](CCCCN)NC(=O)[C@H](CO)NC(=O)[C@@H](NC(=O)[C@H](CC(=O)O)NC(=O)[C@H](CO)NC(=O)[C@@H](NC(=O)[C@](C)(Cc1ccccc1)NC(=O)[C@H](CO)NC(=O)CNC(=O)[C@H](CCC(N)=O)NC(=O)[C@H](CO)NC(=O)[C@@H](N)Cc1c[nH]cn1)[C@@H](C)O)C(C)C)[C@@H](C)CC)C(=O)N[C@@H](C)C(=O)N[C@@H](C)C(=O)N[C@@H](CCC(N)=O)C(=O)N[C@@H](CC(=O)O)C(=O)N[C@@](C)(Cc1ccccc1)C(=O)N[C@H](C(=O)N[C@@H](CCC(N)=O)C(=O)N[C@H](C(=O)N[C@H](C(=O)N[C@@H](C)C(=O)N[C@@H](CC(N)=O)C(N)=O)[C@@H](C)CC)[C@@H](C)CC)C(C)C)C(=O)O)C(=O)O [Peptide 112] (H-HSQGS[αMeF]TSDVSKILDSK([PEG2-PEG2-γGlu-γGlu-Palmitoyl])AAQD[αMeF]VQIIAN-NH2)	2.69	3.36	1.6
CCCCCCCCCCCCCCCC(=O)N[C@@H](CCC(=O)N[C@@H](CCC(=O)NCCOCCOCCC(=O)NCCOCCOCCC(=O)NCCCC[C@H](NC(=O)[C@H](CO)NC(=O)[C@H](CC(=O)O)NC(=O)[C@H](CC(C)C)NC(=O)[C@@H](NC(=O)[C@H](CCCCN)NC(=O)[C@H](CO)NC(=O)[C@@H](NC(=O)[C@H](CC(=O)O)NC(=O)[C@H](CO)NC(=O)[C@@H](NC(=O)[C@](C)(Cc1ccccc1)NC(=O)[C@H](CO)NC(=O)CNC(=O)[C@H](CCC(N)=O)NC(=O)[C@H](CO)NC(=O)[C@@H](N)Cc1c[nH]cn1)[C@@H](C)O)C(C)C)[C@@H](C)CC)C(=O)N[C@@H](C)C(=O)N[C@@H](C)C(=O)N[C@@H](CCC(N)=O)C(=O)N[C@@H](CC(=O)O)C(=O)N[C@@](C)(Cc1ccccc1)C(=O)N[C@H](C(=O)N[C@@H](CCC(N)=O)C(=O)N[C@H](C(=O)N[C@H](C(=O)N[C@@H](C)C(=O)NCC(N)=O)[C@@H](C)CC)[C@@H](C)CC)C(C)C)C(=O)O)C(=O)O [Peptide 113] (H-HSQGS[αMeF]TSDVSKILDSK([PEG2-PEG2-γGlu-γGlu-Palmitoyl])AAQD[αMeF]VQIIAG-NH2; N-terminus assumed)	4.6	1.61	5.6

Source: US20250353891A1 (MEDIMMUNE LIMITED, priority 2022, published 2025)
